Among the data in patent US20250280827A1, “An antifungal composition comprising natamycin and at least one insecticide” (priority 2021, published 2025) are Avg infected area and Observed antifungal activity values, retold here.

Structures are written as SMILES. Read-outs that look alike come from different tables or passages of the source.

For one experiment, the system named is Fusarium graminerum. It counts as cell-based. The settings on record: 6 days after inoculation, Table 5. An excerpt: (§1) The Colby equation (Colby, 1967. Weeds 15:20-22) calculates the expected antifungal activity (E in %) of a combination comprising more than one active ingredients:
(§2) wherein X and Y are the observed antifungal activities (in %) of the individual active ingredients x and y, respectively. If the observed antifungal activity (O in %) of the combination exceeds the expected antifungal activity (E in %) of the combination and the synergy factor O/E is thus >1.0, the combined application of the active ingredients leads to a synergistic antifungal effect.
(§3) Agar medium was prepared by mixing in a 100 ml Duran bottle 3.9 g of potato dextrose agar (PDA) from Carl-Roth (Carl-Roth GmbH+Co. KG, Karlsruhe, Germany) with 100 ml deionized water and autoclaving the Duran bottle at 120° C. for 15 minutes. After autoclaving, the solution was cooled by putting it in a 48° C. oven for about two hours. Afterward the semi-liquid PDA solution was carefully mixed with natamycin and/or insecticide dosages as specified in Table 5 showing the interaction results on petri dishes. The medium in the Duran bottle was divided over 5 petri dishes (90×15 mm), 20 ml per petri dish by using 25 ml serological pipets (ROTILABO®; Carl-Roth). Each natamycin and/or insecticide treatment was performed in fivefold.
(§4) Fungal spore suspensions were prepared by drenching a fully grown petri dish with sterile water. The fungus was scraped off and filtered through a Miracloth (pore size: 22-25 μm) (Merck KGaA, Darmstadt, Germany; catalogue number: 475855). The number of spores were counted with a hemocytometer and fungal suspension was adjusted to 10^6 spores per ml. Afterward, 5 μl of prepared spore suspension was pipetted on the center of the agar plate. The plates were incubated at 25° C. Measurement of the fungal growth was done using callipers at different time points. Assessment of the infection area was 6 days after inoculation.
(§5) The insecticide levels and the period after which the assessments were made are presented as specified for the different insecticides are presented in Table 5 below. Synergistic calculation was done using the Colby equation. Experiment was performed in 5-fold.
The experiments were performed as described in Example 3. The product KARATE ZEON® of company Syngenta containing the active ingredient lambda-cyhalothrin belonging to IRAC Group 3 was tested. Assessment of the infection area was 6 days after inoculation. Experiment was performed in 5-fold.

Another experiment deals with Sclerotinia sclerotiorum. Briefly: Antifungal effect against Sclerotinia sclerotiorum infection on wounded skin of broad bean pods (rot area, Colby synergy). The class given is in vivo. The conditions noted are these: 23 h after inoculation, Table 4.
Source text: as §1, §2
• 1) Control (without natamycin and lambda-cyhalothrin) • 2) Natamycin at a level of 15 ppm • 3) Lambda-cyhalothrin (in the product KARATE ZEON® of Syngenta) at a levels of 0.15 ppm, 0.6 ppm, 3 ppm and 15 ppm • 4) Natamycin at a level of 15 ppm combined with lambda-cyhalothrin at levels of 0.15 ppm, 0.6 ppm, 3 ppm or 15 ppm.
Used pathogen: Sclerotinia sclerotiorum.
(§6) Application: The broad bean pods were washed under tap water, and were subsequently surface sterilized by placing them in a 0.1% sodium hypochlorite solution for 5 minutes. The pods were then rinsed with tap water and dried. Transparent plastic containers were prepared by placing a piece of absorbing paper in the container and adding 25 ml of water, one container per treatment was used. The pods were cut in two, and two halve pods were incubated per box. The skin of broad bean pods was damaged with a needle, ø 2 mm and to a depth of about 3 mm into the fruit, with—depending on the size of the pod—2 to 4 wounds per half pod. In total, 6 wounds were incubated per treatment, of which 1 was used as a control. A volume of 20 microliter of a natamycin/insecticide composition, as presented herein above, was applied by pipette to each wound. The treatments were then left to air-dry. Once dried, a mycelium plug of Sclerotinia sclerotiorum was placed upside down on each wound, so that the mycelium was in direct contact with the wound. Per treatment 5 wounds were inoculated with the fungus, while the 6th and last wound was used as negative non-inoculated control. After inoculation, the containers were directly closed with a transparent plastic lid.
All pods were kept at room temperature (20° C.). Wounds of the pods were checked after 30 h of incubation.
Replicates: All treatments for the broad bean pod experiment were performed on two individual pod halves resulting in 5 wounds per treatment, while a sixth wound served as control.
The experiments were performed as described in Example 1.
The experiments were performed as described in Example 1. Assessment of the infection area was 23 h after inoculation. Experiment was performed in 5-fold.
The experiments were performed as described in Example 1. Thiamethoxam belongs to IRAC Group 4. Assessment of the infection area was 31 hours after inoculation. Experiment was performed in 5-fold.
The experiments were performed as described in Example 1. The product SPECTRE® of company (Adama) containing the active ingredient chlorfenapyr belonging to IRAC Group 13 was tested. Assessment of the infection area was 23 hours after inoculation. Experiment was performed in 5-fold.

The test system of the next experiment is Fusarium culmorum. Briefly: Antifungal effect against Fusarium culmorum on PDA petri dishes (fungal growth area, Colby synergy). The class given is cell-based. The settings on record: 6 days after inoculation, Table 6.
Source text: as §1, §2, §3, §4, §5
The experiments were performed as described in Example 3. Assessment of the infection area was 6 days after inoculation. Experiment was performed in 5-fold.
The experiments were performed as described in Example 3. The product KARATE ZEON® of company Syngenta containing the active ingredient lambda-cyhalothrin belonging to IRAC Group 3 was tested. Assessment of the infection area was 3 days after inoculation. Experiment was performed in 5-fold.

In a further experiment the test system is Colletotrichum spp. Briefly: Antifungal effect against Colletotrichum infection on wounded skin of pepper fruits (Colby synergy). The class given is in vivo. The conditions noted are these: 5 days after inoculation, Table 16. An excerpt:
wherein X and Y are the observed antifungal activities (in %) of the individual active ingredients x and y, respectively. If the observed antifungal activity (O in %) of the combination exceeds the expected antifungal activity (E in %) of the combination and the synergy factor O/E is thus >1.0, the combined application of the active ingredients leads to a synergistic antifungal effect. […]
For the treatment, 5 wounds per pepper side were done as previously described. In addition, one wound was done as negative control. Depending on the number of sides of the pepper, 3 to 4 treatments were done per paprika. Per wound 10 μl of treatment was placed on the wound. The treatments were let to dry in a down flow cabinet for about 30 minutes. After drying 5 μl spore suspension at a concentration of 10^7 spores per ml were placed on the wounds. The fungus was isolated from Colletotrichum-infected plant material and identified using techniques known to the person skilled in the art. The pepper were placed as described previously in a transparent container, with the difference that the containers were then placed in a transparent plastic zipper bag. The bags with peppers were placed at room temperature and in the dark for two days. After that the size of the lesions were measured. Assessment of the infection area was 4 days after inoculation. Experiment was performed in 5-fold.
The fungus was isolated from Colletotrichum-infected plant material and identified using techniques known to the person skilled in the art. Assessment of the infection area was performed 5 days after inoculation. Experiment was performed in 5-fold.
The active ingredient imidacloprid was formulated as described in Table 2. Imidacloprid belonging to IRAC Group 4. The fungus was isolated from Colletotrichum-infected plant material and identified using techniques known to the person skilled in the art. Assessment of the infection area was performed 5 days after inoculation. Experiment was performed in 5-fold.
The fungus was isolated from Colletotrichum-infected plant material and identified using techniques known to the person skilled in the art. Assessment of the efficacy was 5 days after inoculation. Experiment was performed in 5-fold.
The fungus was isolated from Colletotrichum-infected plant material and identified using techniques known to the person skilled in the art. Assessment of the infection area was performed 6 days after inoculation. Experiment was performed in 5-fold.
The fungus was isolated from Colletotrichum-infected plant material and identified using techniques known to the person skilled in the art. Assessment of the infection area was performed 4 days after inoculation. Experiment was performed in 5-fold.

Another experiment concerns Botrytis cinerea. Briefly: Antifungal effect against Botrytis cinerea infection on wounded peel of banana fruits (Colby synergy). The class given is in vivo. The conditions noted are these: 5 days after inoculation.
Source text: as §2, §6
The infection area was measured 5 days after inoculation.
A few changes were made for the banana experiments: 5 wounds per banana were made, on each wound 40 microliter of treatments was pipetted. The treatments were then left to air-dry. Once dried, 2 microliter of a freshly prepared inoculum was pipetted on four of the wounds. The inoculum consists of […] potato dextrose broth (PDB) medium containing Botrytis cinerea spores at a concentration of 10^6 spores per ml. The fifth wound was used as negative non-inoculated control. Experiment was performed in 4-fold.
Assessment of the infection area was performed 3 days after inoculation. Experiment was performed in 4-fold.
Imidacloprid was formulated as described in Table 2. Assessment of the efficacy was 5 days after inoculation. Experiment was performed in 4-fold.

Setting [1] is: natamycin-insecticide 0-0.05 ppm.
[2] abbreviates: natamycin-insecticide 0-0.1 ppm.
The mark [3] stands for this setting: natamycin-insecticide 0-0.2 ppm.
Setting [4] is: natamycin-insecticide 0-0.5 ppm.
The mark [5] stands for this setting: natamycin-insecticide 0-0.15 ppm.
The mark [6] stands for this setting: natamycin-insecticide 0-0.6 ppm.
The mark [7] stands for this setting: natamycin-insecticide 0:0.01 ppm.
[8] abbreviates: natamycin-insecticide 0:0.04 ppm.
Setting [9] is: natamycin-insecticide 0:0.004 ppm, Table 18B.
Where [10] appears, read: natamycin-insecticide 0:0.01 ppm, Table 18A.
The mark [11] stands for this setting: natamycin-insecticide 0:0.04 ppm, Table 18A.
Setting [12] is: natamycin-insecticide 0:1 ppm, Table 18A.

`CCOC(=O)/C=C(C)/C=C/CC(C)CCCC(C)C` (stereo not shown) [hydroprene]: the Avg infected area in the experiment on Fusarium graminerum (setting [1]) was found to be 1124 mm2; in the experiment on Fusarium graminerum (setting [2]), 1142.1 mm2; in the experiment on Fusarium graminerum (setting [3]) it was 970.5 mm2; in the experiment with Fusarium graminerum (setting [4]) it was 1055.1 mm2; in the experiment on Sclerotinia sclerotiorum (setting [5]), 99.3 mm2; in the experiment on Sclerotinia sclerotiorum (setting [6]) it was 103.1 mm2. For the same compound, the Avg infected area in the experiment on Sclerotinia sclerotiorum (natamycin-insecticide 0-3 ppm) amounted to 74.5 mm2; in the experiment with Sclerotinia sclerotiorum (natamycin-insecticide 0-15 ppm), 89 mm2; with Fusarium culmorum (setting [1]), 934.7 mm2; in the experiment with Fusarium culmorum (setting [2]), 1010.5 mm2; with Fusarium culmorum (setting [3]), 1014.3 mm2; in the experiment with Fusarium culmorum (setting [4]), 1060.2 mm2. In addition, the Observed antifungal activity in the experiment on Fusarium graminerum (setting [1]) is given as 1.0%; in the experiment on Fusarium graminerum (setting [2]), −0.6%; in the experiment on Fusarium graminerum (setting [3]), 14.5%; in the experiment on Fusarium graminerum (setting [4]), 7.1%; with Sclerotinia sclerotiorum (setting [5]) it was 36.6%; in the experiment with Sclerotinia sclerotiorum (setting [6]), 34.2%. Besides, the Observed antifungal activity is recorded as 52.5% in the experiment on Sclerotinia sclerotiorum (natamycin-insecticide 0-3 ppm); 43.2% in the experiment with Sclerotinia sclerotiorum (natamycin-insecticide 0-15 ppm); 6.4% with Fusarium culmorum (setting [1]); −1.2% in the experiment on Fusarium culmorum (setting [2]); −1.6% in the experiment with Fusarium culmorum (setting [3]); −6.2% with Fusarium culmorum (setting [4]).
In the case of `O=[N+]([O-])NC1=NCCN1Cc1ccc(Cl)nc1` [imidacloprid, N-[1-[(6-chloropyridin-3-yl)methyl]-4,5-dihydroimidazol-2-yl]nitramide], the Avg infected area in the experiment on Colletotrichum spp. (setting [7]) came out at 18.5 mm2; in the experiment with Colletotrichum spp. (setting [8]), 23.3 mm2; in the experiment with Colletotrichum spp. (natamycin-insecticide 0:1 ppm), 27.9 mm2; in the experiment on Botrytis cinerea (setting [9]), 16.6 mm2; with Botrytis cinerea (setting [10]), 35.6 mm2; with Botrytis cinerea (setting [11]) it was 53.2 mm2. Moreover, the Avg infected area with Botrytis cinerea (setting [12]) is 32.4 mm2. The Observed antifungal activity in the experiment on Colletotrichum spp. (setting [7]) was 56.3%; in the experiment with Colletotrichum spp. (setting [8]) it was 44.7%; in the experiment with Botrytis cinerea (setting [9]), 43.3%; in the experiment on Botrytis cinerea (setting [10]), 27.6%; in the experiment on Botrytis cinerea (setting [11]) it was −8.3%; in the experiment on Botrytis cinerea (setting [12]), 34.1%.
